Test: CP 55,940 levels in eight brain regions 2 h after single i.p. 3 mg/kg injection (HPLC/MS/MS)
Assay type: in vivo, mouse
Settings: for CP 55,940 Direction (relative to Veh) / CP 55,940 Magnitude (x Veh level): p .000
Description: The Bloomington Institutional Animal Care and Use Committee of Indiana University reviewed and approved the animal procedures. Female mice from the CD1 strain were utilized to match our study examining THC’s effects on the brain lipidome ([Leishman et al., 2018]). Mice were given a single i.p. injection of either 3 mg/kg CP or 1:1:18 cremophor:ethanol:saline vehicle (please refer to the section “3 mg/kg CP Is Relevant for Synthetic Cannabinoid Abuse and Has Stronger Effects on the Female Mouse Brain Lipidome During Adolescence” for a justification of dose and use of female mice). Three different age groups were given injections: PND 35 and PND 50 adolescents, and adult mice (PND 113). At least eight mice in each age group received CP and at least eight received vehicle. Matching the THC study time course ([Leishman et al., 2018]), mice were sacrificed via rapid decapitation 2 h after injection. Brains were immediately removed and flash-frozen in liquid nitrogen, and then stored at -80°C until dissections were performed. Brains were dissected on an ice-cold dissection plate into the following regions: STR, HIPP, CER, THAL, CTX, HYP, MID, and STEM. These abbreviations for these brain areas will be used exclusively when discussing the results generated by these specific dissections. Each dissected area was immediately placed in liquid nitrogen and then stored at -80°C until used for lipid extraction.
Tissue extracts were performed as previously described ([Bradshaw et al., 2006]; [Stuart et al., 2013]; [Raboune et al., 2014]; [Leishman et al., 2016a],[b], [2017], [2018]). First, samples were shock frozen in liquid nitrogen, weighed, and transferred to a centrifuge tube. The mass of the largest sample was multiplied by 50 to determine how many milliliters of HPLC-grade methanol (Fisher, Fair Lawn, NJ, United States) to add. Then, samples were spiked with 500 pmol deuterium-labeled NAGly (d8NAGly; Cayman Chemical, Ann Arbor, MI, United States). Samples were placed on ice in darkness for 2 h then individually homogenized and centrifuged at 19,000 × g for 20 min at 20°C. Supernatants were diluted with HPLC water (purified in house) to make a solution of 75% water, 25% supernatant. Lipids were partially purified on C18 solid phase extraction columns (Agilent, Palo Alto, CA, United States). A series of four elutions with 1.5 mL of 60%, 75%, 85%, and 100% methanol were collected ([Stuart et al., 2013]; [Leishman et al., 2016a],[b], [2018]).
As previously described ([Bradshaw et al., 2006]; [Tan et al., 2006]; [Smoum et al., 2010]; [Stuart et al., 2013]; [Tortoriello et al., 2013]; [Raboune et al., 2014]; [Leishman et al., 2016a],[b], [2017], [2018]), samples were analyzed using an Applied Biosystems API 3000 triple quadrupole mass spectrometer with electrospray ionization (Foster City, CA, United States). Using an Agilent XDB-C18 reversed phase analytical column and optimized mobile phase gradients, 20 μL from each elution were chromatographed. Two Shimadzu 10ADvp pumps (Columbia, MD, United States) provided the pressure for gradient elution. Mobile phase A: 20% methanol, 80% water (v/v) and 1 mM ammonium acetate (Sigma, St. Louis, MO, United States). Mobile phase B: 100% methanol, 1 mM ammonium acetate. Every method run began with 0% mobile phase B, reached 100% mobile phase B flowing at 0.2 mL/min, and gradually returned to 0% mobile phase B.
This screening library will be referred to as the lipidome when discussing data from this study. HPLC/MS/MS data were analyzed using Analyst software (Applied Biosystems) ([Bradshaw et al., 2006]; [Tan et al., 2006]; [Stuart et al., 2013]; [Tortoriello et al., 2013]; [Raboune et al., 2014]; [Leishman et al., 2016a],[b], [2017], [2018]). Chromatograms (Supplementary Figure 3) were generated by determining the retention time of analytes from the analytical column with a [M-1] or [M+1] parent peak and a fragmentation peak corresponding to the programmed values. […]

[1] = adult brainstem, 3mg/kg CP 55,940
[2] = adult cortex, 3 mg/kg CP 55,940
[3] = adult hypothalamus, 3mg/kg CP 55,940
[4] = adult midbrain, 3mg/kg CP 55,940
[5] = brainstem, PND35, 3 mg/kg CP 55,940 vs Veh

CCCCCCC(C)(C)c1ccc([C@@H]2C[C@H](O)CC[C@H]2CCCO)c(O)c1 [CP 55,940]
brain area with highest levels of CP (PND 35): CTX
CP 55,940 level, Mean (PND 35, CER, 2 hours after acute 3 mg/kg injection): 7.2155E-011
CP 55,940 level, Mean (PND 35, CTX, 2 hours after acute 3 mg/kg injection): 1.1107E-010
CP 55,940 level, Mean (PND 35, HIPP, 2 hours after acute 3 mg/kg injection): 9.6303E-011
CP 55,940 level, Mean (PND 35, HYP, 2 hours after acute 3 mg/kg injection): 5.3113E-011
CP 55,940 level, Mean (PND 35, MID, 2 hours after acute 3 mg/kg injection): 7.9142E-011
CP 55,940 level, Mean (PND 35, STEM, 2 hours after acute 3 mg/kg injection): 7.0414E-011
CP 55,940 level, Mean (PND 35, STR, 2 hours after acute 3 mg/kg injection): 5.7413E-011
CP 55,940 level, Mean (PND 35, THAL, 2 hours after acute 3 mg/kg injection): 8.8715E-011
CP 55,940 level, Mean (PND 35, Total (all brain areas), 2 hours after acute 3 mg/kg injection): 7.8540E-011
CP 55,940 level, Direction (relative to Veh) (PND 35 hypothalamus): ↑
CP 55,940 level, Magnitude (x Veh level) (PND 35 hypothalamus): infinite
CP 55,940 level: Magnitude (x Veh level) (PND 35 midbrain, 3mg/kg): infinite
CP 55,940 level: Direction (rel to Veh) (PND 35 midbrain, 3mg/kg, one-way ANOVA): ↑
CP 55,940 mean level (PND 35 striatum, 3 mg/kg i.p., 2 h): 5.74E-11 moles per gram
brain area with highest levels of CP (PND 50): HIPP
CP 55,940 level, Mean (PND 50, CER, 2 hours after acute 3 mg/kg injection): 7.5674E-011
CP 55,940 level, Mean (PND 50, CTX, 2 hours after acute 3 mg/kg injection): 8.6116E-011
CP 55,940 level, Mean (PND 50, HIPP, 2 hours after acute 3 mg/kg injection): 1.2297E-010
CP 55,940 level, Mean (PND 50, HYP, 2 hours after acute 3 mg/kg injection): 4.3769E-011
CP 55,940 level, Mean (PND 50, MID, 2 hours after acute 3 mg/kg injection): 1.2091E-010
CP 55,940 level, Mean (PND 50, STEM, 2 hours after acute 3 mg/kg injection): 8.3747E-011
CP 55,940 level, Mean (PND 50, STR, 2 hours after acute 3 mg/kg injection): 5.8704E-011
CP 55,940 level, Mean (PND 50, THAL, 2 hours after acute 3 mg/kg injection): 9.9312E-011
CP 55,940 level, Mean (PND 50, Total (all brain areas), 2 hours after acute 3 mg/kg injection): 8.6438E-011
brain area with highest levels of CP (adult): CER
CP 55,940 level, Direction (relative to Veh) [1]: ↑
CP 55,940 level, Magnitude (x Veh level) [1]: infinite
CP 55,940 level, Mean (adult cortex, 3mg/kg CP 55,940): 1.85E-10
CP 55,940 Direction (relative to Veh) [2]: ↑
CP 55,940 Magnitude (x Veh level) [2]: infinite
CP 55,940 level, Mean (adult female mice, brainstem, 3mg/kg CP 55,940): 1.52E-10
CP 55,940 level, Mean (adult hypothalamus, 3 mg/kg CP 55,940): 1.17E-10
CP 55,940 Direction (relative to Veh) [3]: ↑
CP 55,940 Magnitude (x Veh level) [3]: infinite
CP 55,940 level, Mean [4]: 2.2E-10
CP 55,940 Direction (relative to Veh) [4]: ↑
CP 55,940 Magnitude (x Veh level) [4]: infinite
CP 55,940 level, Mean (adult, CER, 2 hours after acute 3 mg/kg injection): 2.8002E-010
CP 55,940 level, Mean (adult, CTX, 2 hours after acute 3 mg/kg injection): 1.8513E-010
CP 55,940 level, Mean (adult, HIPP, 2 hours after acute 3 mg/kg injection): 2.6840E-010
CP 55,940 level, Mean (adult, HYP, 2 hours after acute 3 mg/kg injection): 1.1726E-010
CP 55,940 level, Mean (adult, MID, 2 hours after acute 3 mg/kg injection): 2.2043E-010
CP 55,940 level, Mean (adult, STEM, 2 hours after acute 3 mg/kg injection): 1.5203E-010
CP 55,940 level, Mean (adult, STR, 2 hours after acute 3 mg/kg injection): 2.0821E-010
CP 55,940 level, Mean (adult, THAL, 2 hours after acute 3 mg/kg injection): 2.0002E-010
CP 55,940 level, Mean (adult, Total (all brain areas), 2 hours after acute 3 mg/kg injection): 2.0394E-010
brain area with lowest levels of CP (all three age groups): HYP
variation of CP levels among the eight brain regions (all three age groups): twofold to threefold
CP 55,940 level, Direction (relative to Veh) [5]: ↑
CP 55,940 level, Magnitude (x Veh level) [5]: infinite
CP 55,940 level (brainstem, PND35 female mice, 3mg/kg CP 55,940, mean): 7.04E-11
